Results from patent publication US6107316A, “Method for treating protozoal infections” (priority 1998, dated 2000).
Converted amounts (≈) assume the structure as drawn. Like-named read-outs stand apart in the source and are kept apart here.

Key:
Tetrahymena pyriformis = assay: in vitro growth inhibitory activity against the ciliate Tetrahymena pyriformis; format: cell-based, Tetrahymena pyriformis (ATCC strain 30005); details: read-out: EC50 Tetrahymena pyriformis
Description: Compounds were evaluated for in vitro growth inhibitory activity against the ciliate Tetrahymena pyriformis, which was used as an indicator organism for the Apicomplexia since by several criteria the ciliates and Apicomplexa are closely related (Edlind T. D. et al., Mol. Phylogenet. Evol. vol. 5, pp. 359-367, 1996). T. pyriformis (ATCC strain 30005) was grown in 1 ml ATCC medium 357 at 25° C. in 4 ml polyallomer culture tubes without shaking. Compounds were dissolved in dimethylsufoxide (DMSO) and added to the cultures (containing 3,000 cells/ml) such that the final DMSO concentration was 0.1-0.3%. […] Parasitol. vol. 84, pp. 355-370, 1996) and Cryptosporidium parvum (Arrowood et al., FEMS Microbial. Lett., vol. 136, pp. 245-249, 1996) were tested for comparison.

[1] = cytotoxicity towards HFF host cells (Cell Titer 96); details: human, % Inhibition of host cell growth (values in parenthesis)
Description: (§1) Cytotoxicity of the test compounds towards host cells was determined using the Cell Titer 96™ it (Promega Corporation, Madison, Wis.) as follows. Cells were seeded at a concentration of 5×10^3 cells per well containing 100 μl of medium in 96-well flat-bottom microtiter plates and incubated at 37° C. in a 5% carbon dioxide environment for 4 hours. Dilutions of the test compounds prepared as described above were then added, and incubation continued for 24, 48 or 72 hours. Four hours before each of these time points the growth medium containing test compound was replaced with 100 μl of fresh medium followed by addition of 16 μl of the kit dye solution. After incubation at 37° C. for another 4 hours, 100 μl of the kit solubilization/stop solution was added to each well, the contents of the wells were mixed and the plates kept 1 hour at room temperature. The plates were then read spectrophotometrically in a plate reader at a wavelength of 570 nm. […] Atovaquone was included in the test as a standard.

Giardia lamblia = assay: in vitro growth inhibitory activity against Giardia lamblia; format: cell-based; details: Giardia duodenalis; concentration required to inhibit growth by 50%
Description: 35, pp. 2198-2202 (1991). EC50 values for test compounds, expressed in parts per million (ppm), were calculated from dose response curves and are presented in Table 4. As used herein, the terminology "EC50" means the concentration of test compound required to inhibit growth by 50% are compared to a control lacking the test compound. Metronidazole was included as a standard in the tests for comparative purposes.

[2] = cytotoxicity towards L929 host cells (Cell Titer 96); details: mouse, % Inhibition of host cell growth (values in parenthesis)
Description: as §1

Toxoplasma gondii [3] = assay: growth inhibition of T. gondii in L929 host cells ([3H]-uracil incorporation); format: cell-based; details: Toxoplasma gondii
Description: (§2) Compounds were tested for it vitro growth inhibitory activity against Toxoplasma gondii replication in L929 (L929-ATCC CCL 1, mouse connective tissue) or HFF (human foreskin fibroblast) host cells using the [^3 H]-uracil incorporation technique as follows. Host cells were grown in 96-well flat-bottom microtiter plates at 37° C in a 5% carbon dioxide environment in modified Eagle's medium containing penicillin, streptomycin and 10% fetal equine serum. Wells containing a homogeneous confluent monolayer of host cells were infected with T. gondii tachyzoites at a ratio of 3 parasites per cell (approximately 6×10^4 tachyzoites per well containing 100 μl of medium). […] Two hours post infection, the cultures were washed to remove free parasites and the various dilutions of test compound were added. Cells were subsequently collected at 24, 48 and 72 hours. Four hours prior to each harvesting 50 Al of [^3 H]-uracil (1 μCi) was added. Cells were collected using a cell harvester and incorporated radioactivity was measured using a scintillation counter. […]

[4] = toxicity towards MDBKF5D2 host cells (MTS); details: bovine, mdbkf5d2 cells, Cytotoxicity (percent toxicity)
Description: (§3) Compounds were tested for in vitro growth inhibitory activity against C. parvum grown in host MDBKF5D2 cells and for toxicity towards the host cells as follows. […] To test for toxicity towards the host cells, the media containing test compound (200 μl) were introduced into two wells of a 96 well microtiter plate containing confluent MDBKF5D2 cell monolayers and two wells without monolayers, and incubated at 37° C. in an 8% carbon dioxide environment. After 48 hours, the tetrazolium salt MTS (Owen's solution) and phenazine methosulfate were added to each well at concentrations of 333 μg/ml and 25 μM, respectively. The plate was returned to the incubator in the dark to develop for 2 hours, then 100 μl of each supernatant was transferred to a new microtiter plate and read spectrophotometrically in a plate reader at a wavelength of 490 nm. Percent toxicity was calculated by subtracting the mean optical density (OD) of the drug supernatants from the OD of medium control supernatants (no drug), dividing by the OD of the medium control, and multiplying by 100. To test for growth inhibitory activity against C. parvum, 3×10^4 oocysts per well were incubated in mentioned concentrations of each drug at 37° C. (8% CO2) on confluent MDBKF5D2 cell monolayers in 96 well microtiter plates. After 48 hours, the level of infection in each well was determined by means of an immunofluorescence assay. Percent inhibition of growth was calculated by subtracting the mean parasite count in the wells containing test compound from the mean parasite count in the medium control wells (no test compound), dividing by the mean parasite count in the medium control wells, and multiplying by 100. Paromomycin was included in the test as a standard.

Toxoplasma gondii [5] = assay: growth inhibition of T. gondii in HFF host cells ([3H]-uracil incorporation); format: cell-based; details: Toxoplasma gondii
Description: as §2

Cryptosporidium parvum = assay: growth inhibitory activity against C. parvum in host MDBKF5D2 cells (immunofluorescence); format: cell-based; details: Cryptosporidium parvum, 48 h
Description: as §3

Leishmania major = assay: in vitro growth inhibitory activity against L. major promastigotes; format: cell-based
Text: 35, pp. 2198-2202 (1991).

[6] = L929, 24 h, L929 host cells, 0.5 μg/ml, 24 hours, read-out: % Inhibition
[7] = L929, 24 h, L929 host cells, 5.0 μg/ml, 24 hours, read-out: % Inhibition
[8] = L929, 48 h, L929 host cells, 0.5 μg/ml, 48 hours, read-out: % Inhibition
[9] = L929, 48 h, L929 host cells, 5.0 μg/ml, 48 hours, read-out: % Inhibition
[10] = L929, 72 h, L929 host cells, 0.5 μg/ml, 72 hours, read-out: % Inhibition
[11] = L929, 72 h, L929 host cells, 5.0 μg/ml, 72 hours, read-out: % Inhibition
[12] = 24 h, HFF host cells, 0.5 μg/ml, 24 hours, read-out: % Inhibition
[13] = 24 h, HFF host cells, 5.0 μg/ml, 24 hours, read-out: % Inhibition
[14] = 48 h, HFF host cells, 0.5 μg/ml, 48 hours, read-out: % Inhibition
[15] = 48 h, HFF host cells, 5.0 μg/ml, 48 hours, read-out: % Inhibition
[16] = 72 h, HFF host cells, 0.5 μg/ml, 72 hours, read-out: % Inhibition
[17] = 72 h, HFF host cells, 5.0 μg/ml, 72 hours, read-out: % Inhibition

## CCC(C)(NC(=O)c1cc(Cl)c(N)c(Cl)c1)C(=O)CCl (stereo not drawn) [Compound 1]
Tetrahymena pyriformis; 24 hours, 25° C.
  EC50: 0.02 µg/mL (≈ 0.0592 µM)
[1]; 0.5 μg/ml
  inhibition at 24 h: 1.6%
  inhibition at 48 h: 0%
  inhibition at 72 h: 1.4%
[1]; 5.0 μg/ml
  inhibition at 24 h: 14.7%
  inhibition at 48 h: 13.5%
  inhibition at 72 h: 47.6%
Giardia lamblia
  EC50: 0.06 µg/mL (≈ 0.178 µM)
[2]; L929, 0.5 μg/ml
  inhibition at 24 h: 1.5%
  inhibition at 48 h: 11.6%
  inhibition at 72 h: 31.3%
[2]; L929, 5.0 μg/ml
  inhibition at 24 h: 19.7%
  inhibition at 48 h: 61.8%
  inhibition at 72 h: 81.1%
Toxoplasma gondii [3]; [6]
  inhibition at 0.5 µg/mL: 7.8%
Toxoplasma gondii [3]; [7]
  inhibition at 5 µg/mL: 10.8%
Toxoplasma gondii [3]; [8]
  inhibition at 0.5 µg/mL: 80.4%
Toxoplasma gondii [3]; [9]
  inhibition at 5 µg/mL: 75.5%
Toxoplasma gondii [3]; [10]
  inhibition at 0.5 µg/mL: 95.4%
Toxoplasma gondii [3]; [11]
  inhibition at 5 µg/mL: 78.2%
[4]
  cytotoxicity at 48 h, 0.1 µM: 0%
  cytotoxicity at 48 h, 1 µM: 0%
  cytotoxicity at 48 h, 10 µM: 19.9%
  cytotoxicity at 48 h, 100 µM: 35.7%
Toxoplasma gondii [5]; [12]
  inhibition at 0.5 µg/mL: 47.6%
Toxoplasma gondii [5]; [13]
  inhibition at 5 µg/mL: 88%
Toxoplasma gondii [5]; [14]
  inhibition at 0.5 µg/mL: 96.1%
Toxoplasma gondii [5]; [15]
  inhibition at 5 µg/mL: 99.3%
Toxoplasma gondii [5]; [16]
  inhibition at 0.5 µg/mL: 91.3%
Toxoplasma gondii [5]; [17]
  inhibition at 5 µg/mL: 99.2%
Cryptosporidium parvum
  inhibition at 0.1 µM: 23.1%
  inhibition at 1 µM: 29.2%
  inhibition at 10 µM: 34.2%
Cryptosporidium parvum; 100 μM
  inhibition at 100 µM: 81.1%
Leishmania major
  EC50: 0.2 µg/mL (≈ 0.592 µM)

## CCC(C)(NC(=O)c1cc(Cl)c(F)c(Cl)c1)C(=O)CCl (stereo not drawn) [Compound 9]
Tetrahymena pyriformis; 24 hours, 25° C.
  EC50: 0.004 µg/mL (≈ 0.0117 µM)
[1]; 0.5 μg/ml
  inhibition at 24 h: 1.1%
  inhibition at 48 h: 1.1%
  inhibition at 72 h: 0%
[1]; 5.0 μg/ml
  inhibition at 24 h: 2.4%
  inhibition at 48 h: 21.3%
  inhibition at 72 h: 6.3%
Giardia lamblia
  EC50: 0.03 µg/mL (≈ 0.0881 µM)
[2]; L929, 0.5 μg/ml
  inhibition at 24 h: 6.3%
  inhibition at 48 h: 0%
  inhibition at 72 h: 8.5%
[2]; L929, 5.0 μg/ml
  inhibition at 24 h: 20.2%
  inhibition at 48 h: 65.2%
  inhibition at 72 h: 90.4%
Toxoplasma gondii [3]; [6]
  inhibition at 0.5 µg/mL: 29%
Toxoplasma gondii [3]; [7]
  inhibition at 5 µg/mL: 28.2%
Toxoplasma gondii [3]; [8]
  inhibition at 0.5 µg/mL: 86.3%
Toxoplasma gondii [3]; [9]
  inhibition at 5 µg/mL: 77.3%
Toxoplasma gondii [3]; [10]
  inhibition at 0.5 µg/mL: 90.9%
Toxoplasma gondii [3]; [11]
  inhibition at 5 µg/mL: 95.6%
[4]
  cytotoxicity at 48 h, 0.1 µM: 6.7%
  cytotoxicity at 48 h, 1 µM: 0%
  cytotoxicity at 48 h, 10 µM: 0%
  cytotoxicity at 48 h, 100 µM: 81.4%
Toxoplasma gondii [5]; [12]
  inhibition at 0.5 µg/mL: 58.7%
Toxoplasma gondii [5]; [13]
  inhibition at 5 µg/mL: 74.3%
Toxoplasma gondii [5]; [14]
  inhibition at 0.5 µg/mL: 77.6%
Toxoplasma gondii [5]; [15]
  inhibition at 5 µg/mL: 97%
Toxoplasma gondii [5]; [16]
  inhibition at 0.5 µg/mL: 0%
Toxoplasma gondii [5]; [17]
  inhibition at 5 µg/mL: 96.3%
Cryptosporidium parvum
  inhibition at 0.1 µM: 1.8%
  inhibition at 1 µM: 27.9%
  inhibition at 10 µM: 32.8%
Leishmania major
  EC50: 0.1 µg/mL (≈ 0.294 µM)

## CCC(C)(NC(=O)c1cc(Cl)c(C)c(Cl)c1)C(=O)CCl (stereo not drawn) [Compound 10]
Tetrahymena pyriformis; 24 h
  EC50: 0.004 µg/mL (≈ 0.0119 µM)
[1]; 0.5 μg/ml
  inhibition at 24 h: 0%
  inhibition at 48 h: 0%
  inhibition at 72 h: 3%
[1]; 5.0 μg/ml
  inhibition at 24 h: 1.4%
  inhibition at 48 h: 7.6%
  inhibition at 72 h: 3.5%
[1]; 25.0 μg/ml
  inhibition at 24 h: 6.7%
  inhibition at 48 h: 9.3%
  inhibition at 72 h: 4.8%
Giardia lamblia
  EC50: 0.06 µg/mL (≈ 0.178 µM)
[2]; L929, 0.5 μg/ml
  inhibition at 24 h: 3.7%
  inhibition at 48 h: 0%
  inhibition at 72 h: 2.2%
[2]; L929, 5.0 μg/ml
  inhibition at 24 h: 2.8%
  inhibition at 48 h: 0%
  inhibition at 72 h: 3.5%
[2]; L929, 25.0 μg/ml
  inhibition at 24 h: 2.2%
  inhibition at 48 h: 4.5%
  inhibition at 72 h: 7.6%
Toxoplasma gondii [3]; L929, 24 h
  inhibition at 0.5 µg/mL: 0%
  inhibition at 5 µg/mL: 20.5%
  inhibition at 25 µg/mL: 19.6%
Toxoplasma gondii [3]; L929, 48 h
  inhibition at 0.5 µg/mL: 0%
  inhibition at 5 µg/mL: 80.5%
  inhibition at 25 µg/mL: 86.5%
Toxoplasma gondii [3]; L929, 72 h
  inhibition at 0.5 µg/mL: 2.3%
  inhibition at 5 µg/mL: 90.4%
  inhibition at 25 µg/mL: 98%
Toxoplasma gondii [5]; 24 h
  inhibition at 0.5 µg/mL: 2.3%
  inhibition at 5 µg/mL: 8.8%
  inhibition at 25 µg/mL: 63.4%
Toxoplasma gondii [5]; 48 h
  inhibition at 0.5 µg/mL: 2.1%
  inhibition at 5 µg/mL: 1.4%
  inhibition at 25 µg/mL: 95.7%
Toxoplasma gondii [5]; 72 h
  inhibition at 0.5 µg/mL: 6.3%
  inhibition at 5 µg/mL: 0%
  inhibition at 25 µg/mL: 97.3%
Leishmania major
  EC50: 0.2 µg/mL (≈ 0.594 µM)
